Measurements taken from patent US20220168295A1, “RIMEGEPANT FOR CGRP RELATED DISORDERS” (Biohaven Pharmaceutical Ireland DAC, priority 2018, published 2022).

System: subjects with Acute Migraines
Test: Study 301 (BHV3000-301) Phase 3 placebo-controlled trial, rimegepant 75 mg tablet, acute treatment of migraine: efficacy and safety
Format: in vivo, human
Procedure: Clinical Trial—BHV3000-301: Phase 3: Double-Blind, Randomized, Placebo-Controlled, Safety and Efficacy Trial of BHV-3000 (Rimegepant) for the Acute Treatment of Migraine (ClinicalTrials.gov Identifier: NCT03235479). A phase 3 clinical study was conducted with 1490 participants, as follows. The purpose of this study was to compare the efficacy of BHV-3000 (rimegepant) versus placebo in subjects with Acute Migraines • Study Type: Interventional (Clinical Trial) • Actual Enrollment: 1490 participants • Allocation: Randomized • Intervention Model: Parallel Assignment • Intervention Model Description: Double-blind to Sponsor, Investigator and Subject Randomized Controlled Trial • Masking: Triple (Participant, Care Provider, Investigator) • Masking Description: Double-blind to Sponsor, Investigator and Subject • Primary Purpose: Treatment • Official Title: BHV3000-301: Phase 3: Double-Blind, Randomized, Placebo-Controlled, Safety and Efficacy Trial of BHV-3000 (Rimegepant) for the Acute Treatment of Migraine [table] • 1. Pain freedom of rimegepant (75 mg tablet) compared with placebo in the acute treatment of migraine will be measured using the number of evaluable subjects that report no pain at 2 hours post-dose. [Time Frame: Two hours post dose] • Pain will be measured on a 4 point Likert scale (0=none, 1=mild, 2=moderate, 3=severe) • 2. Freedom from the most bothersome symptom (MBS) of rimegepant (75 mg tablet) compared with placebo will be measured using the number of evaluable subjects that report the absence of their MBS at 2 hours post-dose. [Time Frame: Two hours post dose] • The MBS (nausea, phonophobia or photophobia) will measured using a binary scale (0=absent, 1=present). • 1. […] [Time Frame: 2 hours −24 hours post-dose] • Sustained Pain Freedom as measured by a 4 point numeric rating scale (None, Mild, Moderate, Severe) • 2. The difference between rimegepant (75 mg tablet) compared to placebo by tabulating the absence of photophobia at 2 hours post-dose in the subset of subjects that reported the presence of photophobia at headache baseline. [Time Frame: 2 hours post-dose] • Photophobia • 3. To evaluate rimegepant (75 mg tablet) compared to placebo by tabulating the number of subjects that report the absence of phonophobia at 2 hours post-dose in the subset of subjects that reported the presence of phonophobia at headache baseline. [Time Frame: 2 hours post-dose] • Phonophobia • 4. To measure the difference between rimegepant (75 mg tablet) compared to placebo on Pain Relief, at 2 hours post-dose, for those that report a pain level of moderate or severe at baseline and then report a pain level of none or mild. [Time Frame: 2 hours post-dose] • Pain Relief as measured by a 4 point numeric rating scale (None, Mild, Moderate, Severe) • 5. Freedom from Nausea by tabulating the number of subjects that report the absence of nausea at 2 hours post-dose in the subset of subjects that reported the presence of nausea at headache baseline. [Time Frame: 2 hours post-dose] • Freedom from Nausea • 6. The difference between rimegepant (75 mg tablet) compared to placebo on the probability of requiring rescue medication using the number of subjects that take rescue medication within […] administration of study medication (BHV3000 or placebo). [Time Frame: up to 24 hours post-dose] • Requiring Rescue Medication • 7. […] [Time Frame: 2 hours-24 hours post-dose] • Sustained Pain Freedom • 8. […] [Time Frame: 2 hours-24 hours post-dose] • Sustained Pain Relief as measured by a 4 point numeric rating scale (None, Mild, Moderate, Severe) • 9. […] [Time Frame: 2 hours-48 hours post-dose] • Sustained Pain Relief as measured by a 4 point numeric rating scale (None, Mild, Moderate, Severe) • 10. To measure the difference between rimegepant (75 mg tablet) relative to placebo on the proportion of subjects able to function normally, at 2 hours, using the number of subjects that self-report as “normal” on the functional disability scale. […]

## N[C@@H]1c2cccnc2[C@H](OC(=O)N2CCC(n3c(=O)[nH]c4ncccc43)CC2)CC[C@H]1c1cccc(F)c1F [Rimegepant, [(5S,6S,9R)-5-amino-6-(2,3-difluorophenyl)-6,7,8,9-tetrahydro-5H-cyclohepta[b]pyridin-9-yl] 4-(2-oxo-3H-imidazo[4,5-b]pyridin-1-yl)piperidine-1-carboxylate]
  SAEs related to the study drug: No SAE was determined to be related to the study drug
  Transaminase level >5 times ULN, subjects: no subject
4/546
  Adverse event dizziness, incidence: 0.7%
5/546
  Adverse event nausea, incidence: 0.9%
11/546
  Serum ALT or AST levels greater than ULN, subjects: 2.0%
P<0.0001
  Proportion of patients achieving normal function at 2 hours (functional disability) versus placebo: greater proportion
n=2, both not dosed before onset
  Serious AEs (SAEs), subjects: 0.4%
One subject
  Transaminase level >3 times ULN, subjects: 0.2%
